Molecules are shown by their SMILES. Calls of active or inactive are those of the source. No rule for the calls is given here.

The target of the assay is G-protein coupled receptor 151 (Homo sapiens) (UniProt Q8TDV0). Briefly: GPR151 activator potency, dose response, cell-based (AID 1508610). The settings on record: cell-based GPR151 activation reporter.
Chain of G-protein coupled receptor 151 (Homo sapiens) (Q8TDV0 whole entry, looked up): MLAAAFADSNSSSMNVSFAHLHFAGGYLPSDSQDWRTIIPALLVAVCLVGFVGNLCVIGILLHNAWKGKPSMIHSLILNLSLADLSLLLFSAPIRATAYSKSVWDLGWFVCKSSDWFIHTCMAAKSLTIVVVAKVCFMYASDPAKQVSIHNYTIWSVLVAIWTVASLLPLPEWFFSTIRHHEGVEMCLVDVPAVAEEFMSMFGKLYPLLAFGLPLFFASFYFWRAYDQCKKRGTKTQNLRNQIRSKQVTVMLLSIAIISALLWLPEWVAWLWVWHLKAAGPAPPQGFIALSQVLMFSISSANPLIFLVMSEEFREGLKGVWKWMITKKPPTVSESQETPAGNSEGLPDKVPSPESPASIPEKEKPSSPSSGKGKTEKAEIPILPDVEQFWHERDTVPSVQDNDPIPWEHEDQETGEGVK

Take `Cc1ccc(-n2nc3c(c2NC(=O)c2cccc(F)c2)CS(=O)C3)c(C)c1` (centres undefined): the EC50 (in general, the concentration needed to bring the measured effect to its halfway point) was > 27.8 µM (inactive).

With `CN1CCN(C(=O)c2ccc(-c3nc4ccc(C(=O)NCCOc5ccccc5)cc4s3)cc2)CC1`, the EC50 was > 28.1 µM (inactive). With `COc1cc(Nc2ccnc(Nc3ccc(N4CCOCC4)cc3)n2)cc(OC)c1OC` the figure was > 28.2 µM (inactive). Regarding `COc1cccc(NC(=O)c2cc(C3CC3)[nH]n2)c1`, the EC50 is > 28 µM (inactive). For `COc1ccc(NC(=O)CCC(=O)Oc2ccc(C)cc2)cc1` the value was > 28 µM (inactive). As for `C/C(=C\c1ccccc1)C(=O)NCCc1ccccc1`, the EC50 is > 28 µM (inactive). With `CC(C)=CCN1CCN(Cc2sccc2C)CC1CCO` (centres undefined) the figure was > 28 µM (inactive); with `C=CCN1C(=O)CS/C1=N\NC(=O)c1ccccc1`, > 28.5 µM (inactive); with `O=C(c1ccc2c(c1)OCO2)N1CCN(c2ccc(Cl)cc2)CC1`, > 28 µM (inactive). With `Oc1csc(Cc2nc(-c3ccccc3F)cs2)n1` the figure was > 28.7 µM (inactive); with `COc1ccc(N=C2SC(CC(=O)Nc3ccc(OC)cc3OC)C(=O)N2C)cc1` (centres undefined), 0.00244 µM. With `COc1cccc(Nc2nc(Nc3cc(C)ccc3C)nc(N3CCOCC3)n2)c1` the figure was > 26.2 µM (inactive); with `CCOC(=O)C(=O)N1CCN(c2ccccc2)CC1`, > 28 µM (inactive); with `CCN(CC)C(=O)Cn1cnc2sc(C(=O)Nc3cc(C)ccc3OC)c(C)c2c1=O`, > 25.7 µM (inactive). On to `CCOCCCNC(=O)c1cc([N+](=O)[O-])ccc1Cl`, for which the EC50 was > 28 µM (inactive). For `CCC1CN(CCNC(=O)CC2CCCC2)Cc2cc(OC)ccc2O1` (centres undefined) the value was > 28 µM (inactive); for `COc1ccc(CCn2c(=S)[nH]c3cc(C(=O)N4CCOCC4)ccc3c2=O)cc1OC`, > 22.2 µM (inactive). With `COc1ccc(C(=O)/C=C\N2CCOCC2)cc1`, the EC50 was > 28 µM (inactive).

Take `COc1ccc(-c2ccc(C(=O)NCc3cccnc3)s2)cc1`: the EC50 is > 28.2 µM (inactive). With `COC(=O)CN1C(=O)S/C(=C\c2cc(Br)c(OC)c(OC)c2)C1=O` the figure was > 28 µM (inactive). For `O=C(O)c1cccc(COc2ccc(CO)cc2Cl)c1` the value was > 28 µM (inactive). Take `CCOc1ccc(/C=C2\SC(=S)N(CC(=O)Nc3ccc(O)cc3)C2=O)cc1`: the EC50 was > 28.4 µM (inactive). On to `O=[N+]([O-])c1ccc(NS(=O)(=O)Cc2ccccc2)c([N+](=O)[O-])c1`, for which the EC50 is > 28 µM (inactive).

For the compound `CCN(CC)S(=O)(=O)c1ccc(C(=O)Nc2ccc(Cc3ccncc3)cc2)cc1`, the EC50 is > 25 µM (inactive).

These data come from PubChem BioAssay AID1508610 (The Scripps Research Institute Molecular Screening Center, 2020).
